pEC50: −log10 of the molar value.

Assay [1] has as its target T1, h-TGR5 (Homo sapiens, UniProt Q8TDU6).
T1 sequence (Q8TDU6 1-330): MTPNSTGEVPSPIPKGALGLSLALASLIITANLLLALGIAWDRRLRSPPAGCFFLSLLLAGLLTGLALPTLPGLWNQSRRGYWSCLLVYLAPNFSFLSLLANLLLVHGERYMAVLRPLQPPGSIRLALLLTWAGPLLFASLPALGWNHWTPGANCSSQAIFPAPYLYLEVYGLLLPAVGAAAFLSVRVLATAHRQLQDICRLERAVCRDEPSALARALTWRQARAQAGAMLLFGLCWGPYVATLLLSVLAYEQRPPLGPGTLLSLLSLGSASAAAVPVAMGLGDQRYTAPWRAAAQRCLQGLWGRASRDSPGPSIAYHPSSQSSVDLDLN
In words: TGR5 cAMP Assay using Cisbio cAMP Dynamic 2 htrf assay kit. The note with it: hTGR5CRE-luc HEK 293 cells. In kind it is cell-based.

The target of assay [2] is T2, human TGR5 (h-TGR5) (Homo sapiens, UniProt Q8TDU6).
T2 sequence (Q8TDU6 1-330): T1 sequence (Q8TDU6 1-330)
In words: TGR5/CRE-Luciferase Assay. The note with it: HEK 293 hTGR5/CRE-Luc cells, 6 hours incubation, read-out: CRE-Luc Agonist (EC50). In kind it is cell-based. Put shortly:
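HEK 293 CRE-Luciferase cells stably expressing the receptor, plated in DMEM 18-20 h before assay, then exposed to serially diluted compounds (DMEM with 5% DMSO) for 6 h. Luciferase read-out after lysis; EC50 from dose-response.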

Turning to `CCN([C@@H](CCC[N+](C)(C)C)C(=O)O)S(=O)(=O)c1cc(F)c(CSc2ncc(C(C)(C)c3ccc(Cl)c(OC)c3)n2-c2ccc(F)cc2)c(F)c1` [Compound 17a, (S)-4-carboxy-4-(4-((5-(2-(4-chloro-3-methoxyphenyl)propan-2-yl)-1-(4-fluorophenyl)-1H-imidazol-2-ylthio)methyl)-N-ethyl-3,5-difluorophenylsulfonamido)-N,N,N-trimethylbutan-1-aminium 2,2,2-trifluoroacetate], the pEC50 in assay [1] and in assay [2] was above 7.00 throughout.

On to `COc1cc(C(C)(C)c2cnc(SCc3c(F)cc(S(=O)(=O)N(C)[C@@H](CCC[N+](C)(C)C)C(=O)O)cc3Cl)n2-c2ccc(F)cc2)ccc1Cl` [Compound 17b, (S)-4-carboxy-4-(3-chloro-4-((5-(2-(4-chloro-3-methoxyphenyl)propan-2-yl)-1-(4-fluorophenyl)-1H-imidazol-2-ylthio)methyl)-5-fluoro-N-methylphenylsulfonamido)-N,N,N-trimethylbutan-1-aminium 2,2,2-trifluoroacetate], for which the pEC50 in assay [1] and in assay [2] was above 7.00 each time.

As for `COc1cc(C(C)(C)c2cnc(SCc3c(F)cc(S(=O)(=O)N(C)[C@H](CCC[N+](C)(C)C)C(=O)O)cc3F)n2-c2ccc(F)cc2)ccc1Cl` [Compound 17c, (R)-4-carboxy-4-(4-((5-(2-(4-chloro-3-methoxyphenyl)propan-2-yl)-1-(4-fluorophenyl)-1H-imidazol-2-ylthio)methyl)-3,5-difluoro-N-methylphenylsulfonamido)-N,N,N-trimethylbutan-1-aminium 2,2,2-trifluoroacetate], the pEC50 in assay [1] and in assay [2] was above 7.00 throughout.

`COc1cc(C(C)(C)c2cnc(SCc3c(F)cc(S(=O)(=O)N(C)[C@H](CCC[N+](C)(C)C)C(=O)O)cc3Cl)n2-c2ccc(F)cc2)ccc1Cl` [Compound 17d, (R)-4-carboxy-4-(3-chloro-4-((5-(2-(4-chloro-3-methoxyphenyl)propan-2-yl)-1-(4-fluorophenyl)-1H-imidazol-2-ylthio)methyl)-5-fluoro-N-methylphenylsulfonamido)-N,N,N-trimethylbutan-1-aminium 2,2,2-trifluoroacetate]: the pEC50 in assay [1] and in assay [2] was above 7.00 in each case.

As for `COc1cc(C(C)(C)c2cnc(SCc3c(F)cc(S(=O)(=O)N[C@@H](CCCC[N+](C)(C)C)C(=O)O)cc3Cl)n2-c2ccc(F)cc2)ccc1Cl` [Compound 17e, (S)-5-carboxy-5-(3-chloro-4-((5-(2-(4-chloro-3-methoxyphenyl)propan-2-yl)-1-(4-fluorophenyl)-1H-imidazol-2-ylthio)methyl)-5-fluorophenylsulfonamido)-N,N,N-trimethylpentan-1-aminium 2,2,2-trifluoroacetate], the pEC50 in assay [1] and in assay [2] was above 7.00 in each case.

With `COc1cc(C(C)(C)c2cnc(SCc3c(F)cc(S(=O)(=O)N(C)[C@@H](CCCC[N+](C)(C)C)C(=O)O)cc3Cl)n2-c2ccc(F)cc2)ccc1Cl` [Compound 17f, (S)-5-carboxy-5-(3-chloro-4-((5-(2-(4-chloro-3-methoxyphenyl)propan-2-yl)-1-(4-fluorophenyl)-1H-imidazol-2-ylthio)methyl)-5-fluoro-N-methylphenylsulfonamido)-N,N,N-trimethylpentan-1-aminium 2,2,2-trifluoroacetate], the negative-log EC50 (pEC50) in assay [1] and in assay [2] was above 7.00 each time.

For `COc1cc(C(C)(C)c2cnc(SCc3c(F)cc(S(=O)(=O)N(C)[C@@H](CCCC[N+](C)(C)C)C(=O)O)cc3F)n2-c2ccc(F)cc2)ccc1Cl` [Compound 17g, (S)-5-carboxy-5-(4-((5-(2-(4-chloro-3-methoxyphenyl)propan-2-yl)-1-(4-fluorophenyl)-1H-imidazol-2-ylthio)methyl)-3,5-difluoro-N-methylphenylsulfonamido)-N,N,N-trimethylpentan-1-aminium 2,2,2-trifluoroacetate], the negative-log EC50 (pEC50) in assay [1] and in assay [2] was above 7.00 each time.

For the compound `CN([C@@H](CCCC[N+](C)(C)C)C(=O)O)S(=O)(=O)c1cc(F)c(CSc2ncc(C(C)(C)c3ccc(Cl)c(Cl)c3)n2-c2ccc(F)cc2)c(Cl)c1` [Compound 17h, (S)-5-carboxy-5-(3-chloro-4-((5-(2-(3,4-dichlorophenyl)propan-2-yl)-1-(4-fluorophenyl)-1H-imidazol-2-ylthio)methyl)-5-fluoro-N-methylphenylsulfonamido)-N,N,N-trimethylpentan-1-aminium 2,2,2-trifluoroacetate], the negative-log EC50 (pEC50) in assay [1] and in assay [2] was above 7.00 in each case.

Consider `COc1cc(C(C)(C)c2cnc(SCc3c(F)cc(S(=O)(=O)N[C@H](CCCC[N+](C)(C)C)C(=O)O)cc3Cl)n2-c2ccc(F)cc2)ccc1Cl` [Compound 17i, (R)-5-carboxy-5-(3-chloro-4-((5-(2-(4-chloro-3-methoxyphenyl)propan-2-yl)-1-(4-fluorophenyl)-1H-imidazol-2-ylthio)methyl)-5-fluorophenylsulfonamido)-N,N,N-trimethylpentan-1-aminium 2,2,2-trifluoroacetate], for which the negative-log EC50 (pEC50) in assay [1] and in assay [2] was above 7.00 throughout.

Turning to `COc1cc(C(C)(C)c2cnc(SCc3c(F)cc(S(=O)(=O)N(C)[C@H](CCCC[N+](C)(C)C)C(=O)O)cc3Cl)n2-c2ccc(F)cc2)ccc1Cl` [Compound 17j, (R)-5-carboxy-5-(3-chloro-4-((5-(2-(4-chloro-3-methoxyphenyl)propan-2-yl)-1-(4-fluorophenyl)-1H-imidazol-2-ylthio)methyl)-5-fluoro-N-methylphenylsulfonamido)-N,N,N-trimethylpentan-1-aminium 2,2,2-trifluoroacetate], the pEC50 in assay [1] and in assay [2] was above 7.00 in each case.

In the case of `COc1cc(C(C)(C)c2cnc(SCc3c(F)cc(S(=O)(=O)N(C)[C@H](CCCC[N+](C)(C)C)C(=O)O)cc3F)n2-c2ccc(F)cc2)ccc1Cl` [Compound 17k, (R)-5-carboxy-5-(4-((5-(2-(4-chloro-3-methoxyphenyl)propan-2-yl)-1-(4-fluoro-phenyl)-1H-imidazol-2-ylthio)methyl)-3,5-difluoro-N-methylphenylsulfonamido)-N,N,N-trimethylpentan-1-aminium 2,2,2-trifluoroacetate], the pEC50 in assay [1] and in assay [2] was above 7.00 throughout.

For the compound `COc1cc(C(C)(C)c2cnc(SCc3c(F)cc(S(=O)(=O)N(C)[C@@H](CCCCC[N+](C)(C)C)C(=O)O)cc3Cl)n2-c2ccc(F)cc2)ccc1Cl` [Compound 17l, (S)-6-carboxy-6-(3-chloro-4-((5-(2-(4-chloro-3-methoxyphenyl)propan-2-yl)-1-(4-fluorophenyl)-1H-imidazol-2-ylthio)methyl)-5-fluoro-N-methylphenylsulfonamido)-N,N,N-trimethylhexan-1-aminium 2,2,2-trifluoroacetate], the negative-log EC50 (pEC50) in assay [1] and in assay [2] was above 7.00 in each case.

For `COc1cc(C(C)(C)c2cnc(CCc3c(F)cc(S(=O)(=O)N(CCC[N+](C)(C)C)[C@H](C)C(=O)O)cc3Cl)n2-c2ccc(F)cc2)ccc1Cl` [Compound 17m, (R)-3-(N-(1-carboxyethyl)-3-chloro-4-(2-(5-(2-(4-chloro-3-methoxyphenyl)propan-2-yl)-1-(4-fluorophenyl)-1H-imidazol-2-yl)ethyl)-5-fluorophenylsulfonamido)-N,N,N-trimethylpropan-1-aminium 2,2,2-trifluoroacetate], the negative logarithm of the EC50 (pEC50) in assay [1] and in assay [2] was above 7.00 in each case.

Turning to `COc1cc(C(C)(C)c2cnc(CCc3c(F)cc(S(=O)(=O)N[C@@H](CCCC[N+](C)(C)C)C(=O)O)cc3Cl)n2-c2ccc(F)cc2)ccc1Cl` [Compound 17n, (S)-5-carboxy-5-(3-chloro-4-(2-(5-(2-(4-chloro-3-methoxyphenyl)propan-2-yl)-1-(4-fluorophenyl)-1H-imidazol-2-yl)ethyl)-5-fluorophenylsulfonamido)-N,N,N-trimethylpentan-1-aminium 2,2,2-trifluoroacetate], the pEC50 in assay [1] and in assay [2] was above 7.00 in each case.

For the compound `COc1cc(C(C)(C)c2cnc(CCc3c(F)cc(S(=O)(=O)N(C)[C@@H](CCCC[N+](C)(C)C)C(=O)O)cc3Cl)n2-c2ccc(F)cc2)ccc1Cl` [Compound 17o, (S)-5-carboxy-5-(3-chloro-4-(2-(5-(2-(4-chloro-3-methoxyphenyl)propan-2-yl)-1-(4-fluorophenyl)-1H-imidazol-2-yl)ethyl)-5-fluoro-N-methylphenylsulfonamido)-N,N,N-trimethylpentan-1-aminium 2,2,2-trifluoroacetate], the pEC50 in assay [1] and in assay [2] was above 7.00 each time.

On to `COc1cc(C(C)(C)c2cnc(SCc3c(F)cc(C#CC[N+](C)(C)C)cc3F)n2-c2ccc(F)cc2)ccc1Cl` [Compound 18, 3-(4-((5-(2-(4-Chloro-3-methoxyphenyl)propan-2-yl)-1-(4-fluorophenyl)-1H-imidazol-2-ylthio)methyl)-3,5-difluorophenyl)-N,N,N-trimethylprop-2-yn-1-aminium 4-methylbenzenesulfonate], for which the pEC50 in assay [1] and in assay [2] was above 7.00 each time.

Turning to `CC[N+](CC)(CC)CC#Cc1cc(F)c(CSc2ncc(C(C)(C)c3ccc(Cl)c(OC)c3)n2-c2ccc(F)cc2)c(F)c1` [Compound 18a, 3-(4-((-5-(2-(4-chloro-3-methoxyphenyl)propan-2-yl)-1-(4-fluorophenyl)-1H-imidazol-2-ylthio)methyl)-3,5-difluorophenyl)-N,N,N-triethylprop-2-yn-1-aminium chloride], the pEC50 in assay [1] and in assay [2] was above 7.00 throughout.

For the origin of these results see patent US8846739B2, “TGR5 agonists” (Exelixis Patent Company LLC, priority 2009, dated 2014).
